Legend:
Type in all cases: in vivo
Ambrosia elatior = conditions: for AMBEL (post-emergence herbicidal action score): 2-4 leaf stage, 5 g of a.i./ha, scored after four weeks, 0=no damage, 100=complete control
Method: (§1) Seeds or rhizome pieces of monocotyledonous and dicotyledonous weeds were placed in sandy loam in plastic pots (Jiffy pots), covered with soil and cultivated in a greenhouse under good and defined growth conditions, i.e. at a day/night rhythm of 22° C./14° C. At the 2-4 leaf stage, the plants were then treated with an aqueous test solution of various compounds according to the invention at the stated dosage. After four weeks, the tests were scored according to the scheme below:
(§2) 0=no damage; 100=complete control
(§3) The control used was the Na^+ salt of 3-(5,6-dihydro-1,4,2-dioxazin-3-yl)-N-[(4,6-dimethoxypyrimidin-2-yl)carbamoyl]pyridine-2-sulfonamide which is already known from U.S. Pat. No. 5,476,936.

Eleusine indica = conditions: for ELEIN (post-emergence herbicidal action score): 2-4 leaf stage, 5 g of a.i./ha, scored after four weeks, 0=no damage, 100=complete control
Method: as §1, §2, §3

Viola tricolor = conditions: pre-emergence, application rate of 0.08 kg or less of active substance per hectare, 3 to 4 weeks
Excerpt: (§4) Seeds or rhizome pieces of mono- and dicotyledonous weeds were placed in sandy loam in cardboard pots and covered with soil. The compounds according to the invention, formulated in the form of wettable powders or emulsion concentrates, were then applied to the surface of the covering soil in the form of aqueous suspensions or emulsions at an application rate of 100 to 800 l of water/ha (converted), at various dosages.
(§5) After the treatment, the pots were placed in a greenhouse and kept under good growth conditions for the weeds. The visual scoring of the damage to the plants or the emergence damage was carried out after the emergence of the test plants after a test period of 3 to 4 weeks, by comparison with untreated controls. As shown by the results, the compounds according to the invention have good herbicidal pre-emergence activity against a broad spectrum of weed grasses and broad-leaved weeds.

Matricaria inodora = conditions: pre-emergence, application rate of 0.08 kg or less of active substance per hectare, 3 to 4 weeks
Excerpt: as §4, §5

Papaver rhoeas = conditions: pre-emergence, application rate of 0.08 kg or less of active substance per hectare, 3 to 4 weeks
Excerpt: as §4, §5

Stellaria media = conditions: pre-emergence, application rate of 0.08 kg or less of active substance per hectare, 3 to 4 weeks
Excerpt: as §4, §5

| Molecule | AMBEL (post-emergence herbicidal action score) (Ambrosia elatior) | ELEIN (post-emergence herbicidal action score) (Eleusine indica) | herbicidal activity against Viola tricolor (Viola tricolor) | herbicidal activity against Matricaria inodora (Matricaria inodora) | herbicidal activity against Papaver rhoeas (Papaver rhoeas) | herbicidal activity against Stellaria media (Stellaria media) | control of Ambrosia elatior (Ambrosia elatior; post-emergence) [%] | effectiveness against the dicotyledonous weed Ambrosia elatior (in words) (Ambrosia elatior; post-emergence) | controlling action against the monocotyledonous weed Eleusine indica (in words) (Eleusine indica; post-emergence) |
| --- | --- | --- | --- | --- | --- | --- | --- | --- | --- |
| 2-(Acetyloxy)-N,N,N-trimethylethanaminium {[3-(5,6-dihydro-1,4,2-dioxazin-3-yl)pyridin-2-yl]sulfonyl}[(4,6-dimethoxypyrimidin-2-yl)carbamoyl]azanide [Compound I-40] | 80 | 93 | very good herbicidal activity | very good herbicidal activity | very good herbicidal activity | very good herbicidal activity | – | – | – |
| 2-Chloro-N,N,N-trimethylethanaminium {[3-(5,6-dihydro-1,4,2-dioxazin-3-yl)pyridin-2-yl]sulfonyl}[(4,6-dimethoxypyrimidin-2-yl)carbamoyl]azanide [Compound I-39] | 80 | 93 | very good herbicidal activity | very good herbicidal activity | very good herbicidal activity | very good herbicidal activity | – | – | – |
| 2-Hydroxy-N-(2-hydroxyethyl)ethanaminium {[3-(5,6-dihydro-1,4,2-dioxazin-3-yl)pyridin-2-yl]sulfonyl}[(4,6-dimethoxypyrimidin-2-yl)carbamoyl]azanide [Compound I-35] | 85 | 80 | very good herbicidal activity | very good herbicidal activity | very good herbicidal activity | very good herbicidal activity | – | – | – |
| 2-hydroxy-N,N,N-trimethylethanaminium {[3-(5,6-dihydro-1,4,2-dioxazin-3-yl)pyridin-2-yl]sulfonyl}[(4,6-dimethoxypyrimidin-2-yl)carbamoyl]azanide [Compound I-38] | 80 | 85 | very good herbicidal activity | very good herbicidal activity | very good herbicidal activity | very good herbicidal activity | – | – | – |
| COc1cc(OC)nc(NC(=O)[N-]S(=O)(=O)c2ncccc2C2=NOCCO2)n1.[Li+] [Compound I-1, Lithium {[3-(5,6-dihydro-1,4,2-dioxazin-3-yl)pyridin-2-yl]sulfonyl}[(4,6-dimethoxypyrimidin-2-yl)carbamoyl]azanide] | 80 | 85 | very good herbicidal activity | very good herbicidal activity | very good herbicidal activity | very good herbicidal activity | – | – | – |
| COc1cc(OC)nc(NC(=O)[N-]S(=O)(=O)c2ncccc2C2=NOCCO2)n1.[K+] [Compound I-2, Potassium {[3-(5,6-dihydro-1,4,2-dioxazin-3-yl)pyridin-2-yl]sulfonyl}[(4,6-dimethoxypyrimidin-2-yl)carbamoyl]azanide] | 80 | 80 | very good herbicidal activity | very good herbicidal activity | very good herbicidal activity | very good herbicidal activity | – | – | – |
| COc1cc(OC)nc(NC(=O)NS(=O)(=O)c2ncccc2C2=NOCCO2)n1.N [Compound I-5, Ammonium {[3-(5,6-dihydro-1,4,2-dioxazin-3-yl)pyridin-2-yl]sulfonyl}[(4,6-dimethoxypyrimidin-2-yl)carbamoyl]azanide] | 75 | 80 | very good herbicidal activity | very good herbicidal activity | very good herbicidal activity | very good herbicidal activity | ≥ 75 | – | – |
| CC(C)N.COc1cc(OC)nc(NC(=O)NS(=O)(=O)c2ncccc2C2=NOCCO2)n1 [Compound I-14, Propan-2-aminium {[3-(5,6-dihydro-1,4,2-dioxazin-3-yl)pyridin-2-yl]sulfonyl}[(4,6-dimethoxypyrimidin-2-yl)carbamoyl]azanide] | 90 | 80 | very good herbicidal activity | very good herbicidal activity | very good herbicidal activity | very good herbicidal activity | – | – | – |
| COc1cc(OC)nc(NC(=O)NS(=O)(=O)c2ncccc2C2=NOCCO2)n1.[Na] [control, Na^+ salt of 3-(5,6-dihydro-1,4,2-dioxazin-3-yl)-N-[(4,6-dimethoxypyrimidin-2-yl)carbamoyl]pyridine-2-sulfonamide, reference compound] | 20 | 75 | – | – | – | – | – | controlled relatively weakly | good controlling action |
